Measured values taken from ChEMBL document CHEMBL1158428, “The influence of double bond geometry in the inhibition of cyclooxygenases by sulindac derivatives” (Bioorg Med Chem Lett, 2009).
Activity calls are given as the source filed them. The rule behind the calls is not given here.

Key:
[1] = molecular target: T1, Prostaglandin G/H synthase 1 (Ovis aries) (UniProt P05979); conditions: 115 nM
T1 sequence (whole entry): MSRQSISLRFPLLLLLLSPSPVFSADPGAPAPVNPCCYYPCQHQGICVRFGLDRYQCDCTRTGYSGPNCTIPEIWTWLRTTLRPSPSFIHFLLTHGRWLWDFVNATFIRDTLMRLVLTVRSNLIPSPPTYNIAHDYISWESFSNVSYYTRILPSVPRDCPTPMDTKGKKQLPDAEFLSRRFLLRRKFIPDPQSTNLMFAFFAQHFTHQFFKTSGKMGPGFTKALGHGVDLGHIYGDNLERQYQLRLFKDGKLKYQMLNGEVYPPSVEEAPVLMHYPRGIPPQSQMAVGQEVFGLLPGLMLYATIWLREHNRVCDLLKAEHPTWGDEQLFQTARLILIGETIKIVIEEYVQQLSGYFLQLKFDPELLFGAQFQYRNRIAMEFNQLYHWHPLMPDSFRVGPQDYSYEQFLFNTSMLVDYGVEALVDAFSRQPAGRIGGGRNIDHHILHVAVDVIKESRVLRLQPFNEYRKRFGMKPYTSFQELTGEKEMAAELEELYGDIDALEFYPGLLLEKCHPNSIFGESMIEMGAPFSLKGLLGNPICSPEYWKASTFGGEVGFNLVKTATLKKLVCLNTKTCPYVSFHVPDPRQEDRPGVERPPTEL
Description: Inhibition of ovine COX1 under saturated substrate level preincubated at 115 nM for 17 mins by TLC

[2] = molecular target: T2, Prostaglandin G/H synthase 2 (Homo sapiens) (UniProt P35354); assay: Inhibition of COX2
T2 sequence (whole entry): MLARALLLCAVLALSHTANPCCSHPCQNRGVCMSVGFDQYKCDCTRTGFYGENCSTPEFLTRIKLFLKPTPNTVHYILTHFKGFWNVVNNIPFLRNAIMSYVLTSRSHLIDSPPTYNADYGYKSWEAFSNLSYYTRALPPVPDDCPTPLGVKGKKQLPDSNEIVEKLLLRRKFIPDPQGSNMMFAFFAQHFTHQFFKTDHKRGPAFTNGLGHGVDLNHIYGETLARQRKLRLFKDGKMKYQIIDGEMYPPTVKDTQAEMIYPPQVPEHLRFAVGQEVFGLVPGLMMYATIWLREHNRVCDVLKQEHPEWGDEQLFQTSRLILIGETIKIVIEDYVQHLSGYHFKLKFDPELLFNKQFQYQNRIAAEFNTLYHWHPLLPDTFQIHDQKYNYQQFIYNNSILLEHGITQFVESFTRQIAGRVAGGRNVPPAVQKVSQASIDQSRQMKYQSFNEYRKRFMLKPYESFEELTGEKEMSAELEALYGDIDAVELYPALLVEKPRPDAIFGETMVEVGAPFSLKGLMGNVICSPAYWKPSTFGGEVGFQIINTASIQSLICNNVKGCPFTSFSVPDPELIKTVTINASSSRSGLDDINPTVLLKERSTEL

| inhibition [1] [%] | Activity [2] | Compound |
| --- | --- | --- |
| 20 | – | CSc1ccc(/C=C2/C=C(CC(=O)O)c3cc(F)ccc32)cc1 |
| – | inactive | COc1ccc2c(c1)c(CC(=O)O)cn2C(=O)c1ccc(Cl)cc1 |
| 75 | – | CSc1ccc(/C=C2/C(C)=C(CC(=O)O)c3cc(F)ccc32)cc1 |
